Assay results taken from patent publication US20160151335A1, “METHODS OF MODULATING CFTR ACTIVITY” (PROTEOSTASIS THERAPEUTICS, INC., priority 2013, published 2016).

These molecules were tested against T1, ΔF508-CFTR (Homo sapiens, UniProt P13569, DEL508-508) (assay: hBE equivalent current (Ieq) assay, AUC of equivalent chloride current). Conditions: compound at 10 uM, 24 h, primary hBE cells homozygous ΔF508; AUC increase relative to VX-809 at 1 uM.
T1 construct: Primary lung epithelial cells (hBEs) homozygous for the Cystic Fibrosis-causing ΔF508 mutation; endogenous in cells; host or cells: primary lung (bronchial) epithelial cells (hBE) homozygous for ΔF508, differentiated at an air-liquid interface
T1 sequence (P13569 with tags, fused parts or gaps DEL508-508): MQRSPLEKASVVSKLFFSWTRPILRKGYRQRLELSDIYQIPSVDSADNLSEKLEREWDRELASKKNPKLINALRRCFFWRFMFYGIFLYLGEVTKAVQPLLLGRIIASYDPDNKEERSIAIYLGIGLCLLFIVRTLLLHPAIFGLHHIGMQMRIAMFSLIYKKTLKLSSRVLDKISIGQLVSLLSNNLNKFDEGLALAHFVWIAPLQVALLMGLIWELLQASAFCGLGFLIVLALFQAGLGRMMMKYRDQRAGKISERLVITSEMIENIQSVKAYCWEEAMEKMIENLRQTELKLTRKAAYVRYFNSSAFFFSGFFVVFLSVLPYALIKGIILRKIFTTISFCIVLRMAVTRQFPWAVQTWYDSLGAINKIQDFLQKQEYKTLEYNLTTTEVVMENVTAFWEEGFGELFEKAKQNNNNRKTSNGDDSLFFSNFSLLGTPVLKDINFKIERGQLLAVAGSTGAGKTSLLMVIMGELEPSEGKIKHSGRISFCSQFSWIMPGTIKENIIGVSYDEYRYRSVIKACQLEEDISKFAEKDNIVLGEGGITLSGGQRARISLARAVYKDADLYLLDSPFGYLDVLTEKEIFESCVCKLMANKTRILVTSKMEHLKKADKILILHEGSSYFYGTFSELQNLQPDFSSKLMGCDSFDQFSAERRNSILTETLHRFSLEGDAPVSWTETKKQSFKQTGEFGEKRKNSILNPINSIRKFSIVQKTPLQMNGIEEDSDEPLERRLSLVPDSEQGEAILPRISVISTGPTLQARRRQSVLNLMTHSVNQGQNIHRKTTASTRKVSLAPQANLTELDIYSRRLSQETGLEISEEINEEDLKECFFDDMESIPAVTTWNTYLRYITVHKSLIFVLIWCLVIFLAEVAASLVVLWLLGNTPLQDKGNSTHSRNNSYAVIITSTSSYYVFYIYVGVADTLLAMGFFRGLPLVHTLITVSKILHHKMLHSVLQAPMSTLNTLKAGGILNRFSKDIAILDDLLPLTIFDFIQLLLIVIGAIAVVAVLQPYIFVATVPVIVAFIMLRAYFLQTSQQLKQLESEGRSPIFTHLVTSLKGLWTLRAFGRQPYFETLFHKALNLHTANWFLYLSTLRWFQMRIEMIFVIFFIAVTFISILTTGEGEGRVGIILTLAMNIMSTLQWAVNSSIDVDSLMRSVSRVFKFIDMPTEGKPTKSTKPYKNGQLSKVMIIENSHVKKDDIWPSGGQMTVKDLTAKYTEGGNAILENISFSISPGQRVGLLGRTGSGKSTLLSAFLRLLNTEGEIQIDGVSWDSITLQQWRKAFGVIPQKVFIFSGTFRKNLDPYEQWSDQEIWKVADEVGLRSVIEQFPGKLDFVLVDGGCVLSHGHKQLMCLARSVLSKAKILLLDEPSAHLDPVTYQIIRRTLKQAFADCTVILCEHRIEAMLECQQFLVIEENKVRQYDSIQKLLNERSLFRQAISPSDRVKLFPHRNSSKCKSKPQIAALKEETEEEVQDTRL
Assay type: cell-based
Experimental: Primary lung epithelial cells homozygous for the Cystic Fibrosis-causing ΔF508 mutation were differentiated for a minimum of 4 weeks in an air-liquid interface on Costar 24 well HTS filter plates prior to the equivalent current (Ieq) measurements. Cells were apically mucus-washed for 30 minutes 24 h prior to treatment with compounds. The basolateral media was removed and replaced with media containing the compound of interest diluted to its final concentration from DMSO stocks. Treated cells were incubated at 37° C. and 5% CO2 for 24 hours. At the end of the treatment period, the media was changed to the Ieq experimental solution for 30 minutes before the experiment and plates are maintained in a CO2-free incubator during this period. The plates containing the cells were then placed in pre-warmed heating blocks at 36° C.±0.5 for 15 minutes before measurements are taken. The transepithelial voltage (VT) and conductance (GT) were measured using a custom 24 channel current clamp (TECC-24) with 24 well electrode manifold. The Ieq assay measurements were made following additions with standardized time periods: • 1. The baseline VT and GT values were measured for approximately 20 minutes. • 2. Benzamil was added to block ENaC for 15 minutes. • 3. Forskolin plus VX-770 were added to maximally activate ΔF508-CFTR for 27 minutes. • 4. Bumetanide was added to inhibit the NaK2Cl cotransporter and shut-off secretion of chloride. The activity data captured was the area under the curve (AUC) for the traces of the equivalent chloride current. The AUC was collected from the time of the forskolin/VX-770 addition until the inhibition by bumetanide addition. Correction in response to compound treatment was scored as the increase in the AUC for compound-treated samples over that of vehicle-treated samples. (++ indicates activity ≧25% run at 10 uM of VX-809 at 1 uM, + indicates activity 10 to ≦25% run at 10 uM of VX-809 at 1 uM.
`O=C(NCCN1C(=O)CSC1=O)c1cc(-c2ccccc2)on1` [Compound 94] was tested, and the “Ieq hBE Activity” value was “+ (+ indicates activity 10 to ≦25% run at 10 uM of VX-809 at 1 uM)”.
With `O=C(NCCc1ccccc1)c1cc(-c2ccccc2)on1` [Compound 95] the “Ieq hBE Activity” value was “++ (++ indicates activity ≧25% run at 10 uM of VX-809 at 1 uM)”.
With `NS(=O)(=O)c1ccc(CCNC(=O)c2cc(-c3ccccc3)on2)cc1` [Compound 97] the “Ieq hBE Activity” value was “++ (++ indicates activity ≧25% run at 10 uM of VX-809 at 1 uM)”.
With `O=C(NCCc1ccccn1)c1cc(-c2ccccc2)on1` [Compound 100] the “Ieq hBE Activity” value was “+ (+ indicates activity 10 to ≦25% run at 10 uM of VX-809 at 1 uM)”.
`O=C(NCCc1cccnc1)c1cc(-c2ccccc2)on1` [Compound 101] was tested, and the “Ieq hBE Activity” value was “++ (++ indicates activity ≧25% run at 10 uM of VX-809 at 1 uM)”.
In the case of `O=C(NCCc1ccncc1)c1cc(-c2ccccc2)on1` [Compound 102], the “Ieq hBE Activity” value was “++ (++ indicates activity ≧25% run at 10 uM of VX-809 at 1 uM)”.
With `O=C(NCCc1csc(-c2ncccn2)n1)c1cc(-c2ccccc2)on1` [Compound 110] the “Ieq hBE Activity” value was “++ (++ indicates activity ≧25% run at 10 uM of VX-809 at 1 uM)”.
With `Cc1nn2cc(CCNC(=O)c3cc(-c4ccccc4)on3)nc2s1` [Compound 114] the “Ieq hBE Activity” value was “++ (++ indicates activity ≧25% run at 10 uM of VX-809 at 1 uM)”.
With `O=C(NCCn1nccn1)c1cc(-c2ccccc2)on1` [Compound 115] the “Ieq hBE Activity” value was “++ (++ indicates activity ≧25% run at 10 uM of VX-809 at 1 uM)”.
In the case of `O=C(NCCc1c[nH]c2ccccc12)c1cc(-c2ccccc2)on1` [Compound 120], the “Ieq hBE Activity” value was “++ (++ indicates activity ≧25% run at 10 uM of VX-809 at 1 uM)”.
`O=C(NCCCN1CCOCC1)c1cc(-c2ccc(F)cc2)on1` [Compound 128] was tested, and the “Ieq hBE Activity” value was “+ (+ indicates activity 10 to ≦25% run at 10 uM of VX-809 at 1 uM)”.
With `O=C(NCCCN1CCOCC1)c1cc(-c2ccccc2F)on1` [Compound 135] the “Ieq hBE Activity” value was “+ (+ indicates activity 10 to ≦25% run at 10 uM of VX-809 at 1 uM)”.
In the case of `COCCNC(=O)c1cc(-c2ccccc2F)on1` [Compound 150], the “Ieq hBE Activity” value was “+ (+ indicates activity 10 to ≦25% run at 10 uM of VX-809 at 1 uM)”.
For `COCCNC(=O)c1cc(-c2ccccc2OC)on1` [Compound 153], the “Ieq hBE Activity” value was “++ (++ indicates activity ≧25% run at 10 uM of VX-809 at 1 uM)”.
`COCCNC(=O)c1cc(-c2ccc(C(F)(F)F)cc2)on1` [Compound 161] was tested, and the “Ieq hBE Activity” value was “+ (+ indicates activity 10 to ≦25% run at 10 uM of VX-809 at 1 uM)”.
In the case of `O=C(NCC(O)COCc1ccccc1)c1cc(-c2ccccc2)on1` (centres unmarked) [Compound 172], the “Ieq hBE Activity” value was “+ (+ indicates activity 10 to ≦25% run at 10 uM of VX-809 at 1 uM)”.
With `O=C(NCCCn1cccc1)c1cc(-c2ccccc2)on1` [Compound 186] the “Ieq hBE Activity” value was “++ (++ indicates activity ≧25% run at 10 uM of VX-809 at 1 uM)”.
`Cn1nccc1CCCNC(=O)c1cc(-c2ccccc2)on1` [Compound 188] was tested, and the “Ieq hBE Activity” value was “++ (++ indicates activity ≧25% run at 10 uM of VX-809 at 1 uM)”.
`O=C(NCCCn1cccn1)c1cc(-c2ccccc2)on1` [Compound 189] was tested, and the “Ieq hBE Activity” value was “++ (++ indicates activity ≧25% run at 10 uM of VX-809 at 1 uM)”.
`Cc1nc(CCCNC(=O)c2cc(-c3ccccc3)on2)sc1C` [Compound 191] was tested, and the “Ieq hBE Activity” value was “++ (++ indicates activity ≧25% run at 10 uM of VX-809 at 1 uM)”.
`O=C(NCCCn1cncn1)c1cc(-c2ccccc2)on1` [Compound 192] was tested, and the “Ieq hBE Activity” value was “++ (++ indicates activity ≧25% run at 10 uM of VX-809 at 1 uM)”.
For `O=C(NCCCc1ccoc1)c1cc(-c2ccccc2)on1` [Compound 194], the “Ieq hBE Activity” value was “+ (+ indicates activity 10 to ≦25% run at 10 uM of VX-809 at 1 uM)”.
With `Cn1cncc1CCCNC(=O)c1cc(-c2ccccc2)on1` [Compound 195] the “Ieq hBE Activity” value was “++ (++ indicates activity ≧25% run at 10 uM of VX-809 at 1 uM)”.
`Cn1cnc(CCCNC(=O)c2cc(-c3ccccc3)on2)c1` [Compound 197] was tested, and the “Ieq hBE Activity” value was “++ (++ indicates activity ≧25% run at 10 uM of VX-809 at 1 uM)”.
With `Cn1ccc(CCCNC(=O)c2cc(-c3ccccc3)on2)c1` [Compound 198] the “Ieq hBE Activity” value was “++ (++ indicates activity ≧25% run at 10 uM of VX-809 at 1 uM)”.
For `O=C(NCCCn1nccc1C1CC1)c1cc(-c2ccccc2)on1` [Compound 200], the “Ieq hBE Activity” value was “++ (++ indicates activity ≧25% run at 10 uM of VX-809 at 1 uM)”.
`Nc1nnc(CCCNC(=O)c2cc(-c3ccccc3)on2)s1` [Compound 201] was tested, and the “Ieq hBE Activity” value was “++ (++ indicates activity ≧25% run at 10 uM of VX-809 at 1 uM)”.
For `O=C(NCCCn1ncc2ccccc21)c1cc(-c2ccccc2)on1` [Compound 204], the “Ieq hBE Activity” value was “++ (++ indicates activity ≧25% run at 10 uM of VX-809 at 1 uM)”.
With `O=C(NCCCn1nnc2ccccc21)c1cc(-c2ccccc2)on1` [Compound 205] the “Ieq hBE Activity” value was “++ (++ indicates activity ≧25% run at 10 uM of VX-809 at 1 uM)”.
In the case of `O=C(NCCCc1cccnc1)c1cc(-c2ccccc2)on1` [Compound 207], the “Ieq hBE Activity” value was “++ (++ indicates activity ≧25% run at 10 uM of VX-809 at 1 uM)”.
With `O=C(NCCCC(F)(F)F)c1cc(-c2cccs2)on1` [Compound 223] the “Ieq hBE Activity” value was “++ (++ indicates activity ≧25% run at 10 uM of VX-809 at 1 uM)”.
For `COCCNC(=O)c1cc(-c2cccs2)on1` [Compound 224], the “Ieq hBE Activity” value was “++ (++ indicates activity ≧25% run at 10 uM of VX-809 at 1 uM)”.
In the case of `O=C(NCC1CCCO1)c1cc(-c2cccs2)on1` (centres unmarked) [Compound 225], the “Ieq hBE Activity” value was “++ (++ indicates activity ≧25% run at 10 uM of VX-809 at 1 uM)”.
`O=C(NCC1CCOC1)c1cc(-c2cccs2)on1` (centres unmarked) [Compound 226] was tested, and the “Ieq hBE Activity” value was “++ (++ indicates activity ≧25% run at 10 uM of VX-809 at 1 uM)”.
For `O=C(NCCn1nccn1)c1cc(-c2cccs2)on1` [Compound 228], the “Ieq hBE Activity” value was “++ (++ indicates activity ≧25% run at 10 uM of VX-809 at 1 uM)”.
For `O=C(NCCN1CCOCC1)c1cc(-c2cccs2)on1` [Compound 229], the “Ieq hBE Activity” value was “+ (+ indicates activity 10 to ≦25% run at 10 uM of VX-809 at 1 uM)”.
`O=C(NCCC1CCOCC1)c1cc(-c2cccs2)on1` [Compound 230] was tested, and the “Ieq hBE Activity” value was “++ (++ indicates activity ≧25% run at 10 uM of VX-809 at 1 uM)”.
With `O=C(NCCc1ccccn1)c1cc(-c2cccs2)on1` [Compound 232] the “Ieq hBE Activity” value was “++ (++ indicates activity ≧25% run at 10 uM of VX-809 at 1 uM)”.
For `O=C(NCCc1cccnc1)c1cc(-c2cccs2)on1` [Compound 233], the “Ieq hBE Activity” value was “+ (+ indicates activity 10 to ≦25% run at 10 uM of VX-809 at 1 uM)”.
With `O=C(NCCc1ccncc1)c1cc(-c2cccs2)on1` [Compound 234] the “Ieq hBE Activity” value was “++ (++ indicates activity ≧25% run at 10 uM of VX-809 at 1 uM)”.
For `O=C(NCCCn1ccnc1)c1cc(-c2cccs2)on1` [Compound 237], the “Ieq hBE Activity” value was “++ (++ indicates activity ≧25% run at 10 uM of VX-809 at 1 uM)”.
For `O=C(NCCCCc1ccncc1)c1cc(-c2cccs2)on1` [Compound 239], the “Ieq hBE Activity” value was “+ (+ indicates activity 10 to ≦25% run at 10 uM of VX-809 at 1 uM)”.
In the case of `CN(CC1CCCO1)C(=O)c1cc(CN2CCOCC2)on1` (centres unmarked) [Compound 256], the “Ieq hBE Activity” value was “+ (+ indicates activity 10 to ≦25% run at 10 uM of VX-809 at 1 uM)”.
For `Cn1nncc1CCCNC(=O)c1cc(-c2ccccc2)on1` [Compound 295], the “Ieq hBE Activity” value was “+ (+ indicates activity 10 to ≦25% run at 10 uM of VX-809 at 1 uM)”.
`O=C(NCC1CCCO1)c1cc(-c2ccco2)on1` (centres unmarked) [Compound 321] was tested, and the “Ieq hBE Activity” value was “+ (+ indicates activity 10 to ≦25% run at 10 uM of VX-809 at 1 uM)”.
With `COCCNC(=O)c1cc(-c2ccccc2)on1` [Compound 329A] the “Ieq hBE Activity” value was “++ (++ indicates activity ≧25% run at 10 uM of VX-809 at 1 uM)”.
`CCNC(=O)c1cc(-c2ccccc2)on1` [Compound 336] was tested, and the “Ieq hBE Activity” value was “++ (++ indicates activity ≧25% run at 10 uM of VX-809 at 1 uM)”.
